From patent publication US20240368122A1, “JAK2 INHIBITORS AND METHODS OF USE THEREOF” (RELAY THERAPEUTICS, INC., priority 2021, published 2024)
Read-outs that look alike come from different tables or passages of the source.

Tests used:
JAK2 JH1 WT (T842-G1132) = target: T1, JAK2 JH1 WT (T842-G1132) (Homo sapiens, UniProt O60674); assay: Surface Plasmon Resonance (SPR) binding assay, JAK2 JH1 domain
T1 construct: *JAK2 JH1 WT (T842-G1132) N-His60-avi-TEV; His6 (N); TEV cleavage site (N); purchased Biortus
Description: Selected compounds of the present disclosure were tested in a Surface Plasmon Resonance (SPR) Assay to measure their binding kinetics and affinity for proteins of interest.
Prepare buffer: 50 mM HEPES pH 7.5, 150 mM NaCl, 0.05% (v/v) Tween, and 10% (v/v) glycerol were combined and pH was adjusted to 7.5, then filtered. 5 mM DTT, was added, and buffer without DMSO was reserved for compound resuspension. 2% (v/v) DMSO was added for assay buffer, and separately 1% DMSO was used to make buffer for resuspending compounds.
Prepare compounds: Using a Bravo liquid handler, 99 μL of 1% (v/v) DMSO assay buffer was added to 1 μL compounds in DMSO.
Run 8K Method: Biotin CAPture (CAP) chip surface was regenerated prior to run by: Inserting CAP chip into Biacore 8K, prime machine with assay buffer with 2% (v/v) DMSO; Setting instrument temperature to 20° C.; Conditioning surface with NaOH/GdnHCl reagents from CAP chip kit (60 seconds, 10 μL/min); and Capturing oligo-Streptavidin (SA) reagent from CAP kit (600 seconds, 1 μL/min), expected capture ˜2500 RU. JAK2 JH1 or JH2 protein was immobilized by preparing a sample of 0.5 uM JH1 or 0.4 uM JH2 protein diluted in assay buffer without DMSO and supplemented with 10 uM of a selected compound of the invention as a stabilizer (370 seconds, 5 uL/min), expected capture ˜1000 RU. Remaining biotin sites on SA were blocked with 1 uM biotin (30 seconds, 20 uL/min), then equilibrated for 1800 seconds at 100 uL/min. Compounds being assayed were run in single cycle kinetics: 4 doses with a top concentration of 5 uM (JH1) or 500 nM (JH2), dilution factor of 3, at 20° C., for a contact time of 60 seconds, and a dissociation time of 300 seconds (JH1) or 1200 seconds (JH2), at a flow rate of 30 uL/min. The surface was completely regenerated after each compound is run, and JH1 or JH2 protein was immobilized fresh prior to each new compound. Data were fitted kinetically with 1:1 binding model using Biacore Insight Evaluation Software.

[1] = target: T2, JAK2 JH2 WT (V536-D812) [W659A, W777A, F794H solubilizing mutations] (Homo sapiens, UniProt O60674, F794H/W659A/W777A); assay: Surface Plasmon Resonance (SPR) binding assay, JAK2 JH2 domain
T2 construct: **JAK2 JH2 WT (V536-D812) [W659A, W777A, F794H solubilizing mutations]; C-thrombin-avi-His6; thrombin cleavage site (C); His6 (C); purchased Biortus
How it was run: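 Kinetics came from 1:1 fits of single-cycle runs at 20 °C: four 3-fold dilutions from 5 uM for JH1 or 500 nM for JH2, 60 s association, and 300 s or 1200 s dissociation respectively. Protein was freshly captured per compound in the presence of 10 uM stabilizer compound, with running buffer of pH 7.5 HEPES/NaCl/glycerol/DTT plus 2% DMSO.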

[2] = system: TF1 JAK2 V617F STAT3 reporter; assay: Cellular TF1 STAT3 assay (luciferase reporter), JAK2 V617F; assay type: cell-based; conditions: read-out: Cell PD-TF1 JAK2 V617F STAT3 (IC50)
How it was run: (§1)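 TF1 V617F JAK2 reporter cells, 10k/well; 10-pt 1:3 dose response from 10 mM 1000× DMSO stock; 18-20 h, 37 °C, 5% CO2; ONE-glo, 10 min RT; luminescence. Triplicate plates, DMSO vehicle.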

[3] = system: TF1 JAK2 V617F STAT5 reporter; assay: Cellular TF1 STAT5 assay (luciferase reporter), JAK2 V617F; assay type: cell-based; conditions: read-out: Cell PD TF1 V617F STAT5 (IC50)
How it was run: as §1

[4] = Homo sapiens, TF-1, TF1 cells, JAK2 V617F

T2 sequence (O60674 536-812 W659A/W777A/F794H): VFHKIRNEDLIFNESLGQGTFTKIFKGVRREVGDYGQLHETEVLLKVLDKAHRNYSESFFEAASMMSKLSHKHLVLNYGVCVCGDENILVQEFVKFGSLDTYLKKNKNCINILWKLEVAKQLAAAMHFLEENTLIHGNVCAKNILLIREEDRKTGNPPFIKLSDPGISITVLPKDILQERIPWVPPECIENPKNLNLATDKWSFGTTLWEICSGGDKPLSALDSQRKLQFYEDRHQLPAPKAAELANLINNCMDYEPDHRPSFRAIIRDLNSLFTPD
T1 sequence (O60674 842-1132): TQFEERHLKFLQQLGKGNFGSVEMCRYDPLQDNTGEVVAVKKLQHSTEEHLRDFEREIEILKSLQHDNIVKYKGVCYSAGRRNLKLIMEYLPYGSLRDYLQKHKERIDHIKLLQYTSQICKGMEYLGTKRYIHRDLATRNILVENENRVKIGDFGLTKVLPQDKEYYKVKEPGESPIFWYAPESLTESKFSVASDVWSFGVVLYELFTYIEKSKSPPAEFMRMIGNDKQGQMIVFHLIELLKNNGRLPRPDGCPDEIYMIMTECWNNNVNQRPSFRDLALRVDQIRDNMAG

SMILES	Kd (JAK2 JH1 WT (T842-G1132); SPR, JAK2 JH1 domain) [nM]	Kd ([1]; SPR, JAK2 JH2 domain) [nM]	IC50 ([2]; TF1 JAK2 V617F) [nM]	IC50 ([3]; TF1 JAK2 V617F) [nM]	Kd (JAK2 JH1 WT (T842-G1132)) [nM]	Kd [1] [nM]	IC50 [2, 4] [nM]	IC50 [3, 4] [nM]
CNC(=O)c1nnc(NC(=O)C2CC2)cc1Nc1cccc(-c2cnn(C3CN(Cc4cnn(C)c4)C3)c2)c1OC [Compound 44]	500 to 5000	0.01 to 10	500 to 5000	500 to 5000	–	–	–	–
CNC(=O)c1nnc(NC(=O)C2CC2)cc1Nc1cccc(-c2cnc(C(=O)N(C)Cc3cccnn3)c(F)c2)c1OC [Compound 48]	5000 to 100000	0.01 to 10	500 to 5000	500 to 5000	–	–	–	–
[2H]C([2H])([2H])NC(=O)c1nnc(NC(=O)C2CC2)cc1Nc1cccc(-c2ccc(C(=O)N(C)Cc3cc(C#N)ccn3)nc2)c1OC [Compound 61]	5000 to 100000	0.01 to 10	50 to 500	50 to 500	–	–	–	–
CNC(=O)c1nnc(NC(=O)C2CC2)cc1Nc1cccc(-c2cnn(C3CN(Cc4cc(C#N)ccn4)C3)c2)c1OC [Compound 66]	5000 to 100000	0.01 to 10	50 to 500	500 to 5000	–	–	–	–
CNC(=O)c1nnc(NC(=O)C2CC2)cc1Nc1cccc(-c2ccc(C(=O)N(C)Cc3cccc(C#N)n3)nc2)c1OC [Compound 135]	5000 to 100000	0.01 to 10	50 to 500	50 to 500	–	–	–	–
CNC(=O)c1nnc(NC(=O)C2CC2)cc1Nc1cccc(-c2cnn(C3CN(Cc4nc(C)cs4)C3)c2)c1OC [Compound 141]	5000 to 100000	0.01 to 10	500 to 5000	500 to 5000	–	–	–	–
CNC(=O)c1nnc(NC(=O)C2CC2)cc1Nc1cccc(-c2cnn(C3CN(Cc4cccc(C(F)F)n4)C3)c2)c1OC [Compound 145]	5000 to 100000	0.01 to 10	50 to 500	50 to 500	–	–	–	–
CNC(=O)c1nnc(NC(=O)C2CC2)cc1Nc1cccc(-c2ccc(C(=O)N(C)Cc3nncs3)nc2)c1OC [Compound 146]	5000 to 100000	0.01 to 10	500 to 5000	5000 to 100000	–	–	–	–
CNC(=O)c1nnc(NC(=O)C2CC2)cc1Nc1cccc(-c2cnn(C3CN(Cc4cccc(C#N)n4)C3)c2)c1OC [Compound 147]	500 to 5000	0.01 to 10	50 to 500	50 to 500	–	–	–	–
CNC(=O)c1nnc(NC(=O)C2CC2)cc1Nc1cccc(-c2cn(C3CN(Cc4ccccn4)C3)nn2)c1OC [Compound 150]	5000 to 100000	0.01 to 10	500 to 5000	500 to 5000	–	–	–	–
CNC(=O)c1nnc(NC(=O)C2CC2)cc1Nc1cccc(-c2cn(C3CN(Cc4cccc(C)n4)C3)nn2)c1OC [Compound 151]	500 to 5000	0.01 to 10	50 to 500	50 to 500	–	–	–	–
C#Cc1cccc(CN2CC(n3cc(-c4cccc(Nc5cc(NC(=O)C6CC6)nnc5C(=O)NC)c4OC)cn3)C2)n1 [Compound 152]	500 to 5000	0.01 to 10	50 to 500	50 to 500	–	–	–	–
CNC(=O)c1nnc(NC(=O)C2CC2)cc1Nc1cccc(-c2nnc(C3CN(Cc4cccc(C)n4)C3)o2)c1OC [Compound 157]	5000 to 100000	0.01 to 10	5000 to 100000	5000 to 100000	–	–	–	–
CNC(=O)c1nnc(NC(=O)C2CC2)cc1Nc1cccc(-c2ccc(C(=O)N(C)Cc3cc(C(F)F)ccn3)nc2)c1OC [Compound 158]	5000 to 100000	0.01 to 10	50 to 500	50 to 500	–	–	–	–
CNC(=O)c1nnc(NC(=O)C2CC2)cc1Nc1cccc(-c2ccc(C(=O)N(Cc3cc(C#N)ccn3)OC)nc2)c1OC [Compound 159]	5000 to 100000	0.01 to 10	50 to 500	50 to 500	–	–	–	–
COc1c(Nc2cc(NC(=O)C3CC3)nnc2C(N)=O)cccc1-c1ccc(C(=O)N(C)Cc2cc(C#N)ccn2)nc1 [Compound 220]	–	–	–	–	50 to 500	0.01 to 10	50 to 500	50 to 500
CNC(=O)c1nnc(NC(=O)C2CC2)cc1Nc1cccc(-c2cn(C3CN(Cc4cccc(C#N)n4)C3)nc2CO)c1OC [Compound 329]	–	–	–	–	500 to 5000	0.01 to 10	500 to 5000	500 to 5000

Results, then the compound that gave them:

Kd (JAK2 JH1 WT (T842-G1132); SPR, JAK2 JH1 domain) [nM]	Kd ([1]; SPR, JAK2 JH2 domain) [nM]	IC50 ([2]; TF1 JAK2 V617F) [nM]	IC50 ([3]; TF1 JAK2 V617F) [nM]	Kd (JAK2 JH1 WT (T842-G1132)) [nM]	Kd [1] [nM]	IC50 [2, 4] [nM]	IC50 [3, 4] [nM]	SMILES
5000 to 100000	0.01 to 10	500 to 5000	500 to 5000	–	–	–	–	CNC(=O)c1nnc(NC(=O)C2CC2)cc1Nc1cccc(-c2ccc(C(=O)N(C)Cc3cc(C#N)ccn3)cn2)c1OC [Compound 55]
5000 to 100000	0.01 to 10	500 to 5000	500 to 5000	–	–	–	–	CNC(=O)c1nnc(NC(=O)C2CC2)cc1Nc1ccc(C)c(-c2cnn(C3CN(Cc4cc(C#N)ccn4)C3)c2)c1OC [Compound 68]
5000 to 100000	0.01 to 10	500 to 5000	500 to 5000	–	–	–	–	CNC(=O)c1nnc(NC(=O)C2CC2)cc1Nc1cccc(-c2cnc(C(=O)N(C)Cc3ccn(C)n3)c(C#N)c2)c1OC [Compound 92]
5000 to 100000	0.01 to 10	500 to 5000	500 to 5000	–	–	–	–	CNC(=O)c1nnc(NC(=O)C2CC2)cc1Nc1cccc(-c2ccc(C(=O)N(C)Cc3ccn(C)n3)c(C#N)c2)c1OC [Compound 119]
5000 to 100000	0.01 to 10	50 to 500	50 to 500	–	–	–	–	CNC(=O)c1nnc(NC(=O)C2CC2)cc1Nc1cccc(-c2ccc(C(=O)N(C)Cc3c(C)ccnc3C)nc2)c1OC [Compound 133]
5000 to 100000	0.01 to 10	50 to 500	500 to 5000	–	–	–	–	CNC(=O)c1nnc(NC(=O)C2CC2)cc1Nc1cccc(-c2ccc(C(=O)N(C)Cc3cccnc3C#N)nc2)c1OC [Compound 136]
500 to 5000	0.01 to 10	50 to 500	50 to 500	–	–	–	–	CNC(=O)c1nnc(NC(=O)C2CC2)cc1Nc1cccc(-c2cnn(C3CN(Cc4cccc(F)n4)C3)c2)c1OC [Compound 142]
5000 to 100000	0.01 to 10	50 to 500	50 to 500	–	–	–	–	CNC(=O)c1nnc(NC(=O)C2CC2)cc1Nc1cccc(-c2cnn(C3CN(Cc4cccc(Cl)n4)C3)c2)c1OC [Compound 143]
500 to 5000	0.01 to 10	500 to 5000	5000 to 100000	–	–	–	–	CNC(=O)c1nnc(NC(=O)C2CC2)cc1Nc1cccc(-c2cnn(C3CN(Cc4ccnc(C)n4)C3)c2)c1OC [Compound 148]
5000 to 100000	0.01 to 10	500 to 5000	500 to 5000	–	–	–	–	CNC(=O)c1nnc(NC(=O)C2CC2)cc1Nc1cccc(-c2ccc(C(=O)N(C)Cc3nnc(C)s3)nc2)c1OC [Compound 149]
5000 to 100000	0.01 to 10	500 to 5000	500 to 5000	–	–	–	–	CNC(=O)c1nnc(NC(=O)C2CC2)cc1Nc1cc(F)cc(-c2cnn(C3CN(Cc4ccn(C)n4)C3)c2)c1OC [Compound 155]
5000 to 100000	10 to 50	5000 to 100000	5000 to 100000	–	–	–	–	CNC(=O)c1nnc(NC(=O)C2CC2)cc1Nc1cccc(-c2nnc(C3CN(Cc4ccccn4)C3)o2)c1OC [Compound 156]
–	–	–	–	5000 to 100000	50 to 500	5000 to 100000	5000 to 100000	CNC(=O)c1nnc(NC(=O)C2CC2)cc1Nc1cccc(-c2cnn(C3CN(C(C)=O)C3)c2)c1OC [Compound 301]
–	–	–	–	500 to 5000	0.01 to 10	50 to 500	50 to 500	CNC(=O)c1nnc(NC(=O)C2CC2)cc1Nc1cccc(-c2cn(C3CN(Cc4cccc(C#N)n4)C3)nc2COC)c1OC [Compound 328]
